Experimental data as given in patent US20020042423A1, “METHODS FOR IDENTIFYING COMPOUNDS THAT BIND TO HLA MOLECULES AND USE OF SUCH COMPOUNDS AS HLA-AGONISTS OR ANTAGONISTS” (priority 1998, published 2002).
“Also recorded” adds a separate entry of the source.

Tests used:
HLA-DR1301 [1] = target: T1, HLA-DR1301 (Homo sapiens, UniProt P01903+P01911, A100E/A169T/K41T/L162R/M171V/P40S/Q125H/Q178H/Q39Y/Q99D/R42S/S66N/T262R/W38E/Y61H); experiment: IL-2 secretion functional blocking assay, DR1301-restricted TCR transfectants with MBP 152-165; type: cell-based; conditions: for specificity for DR-1301 as compared with DR-1501, by inhibitory effect on IL-2 secretion: DR1301- versus DR1501-restricted TCR transfectants; for inhibition of IL-2 secretion / blocking of antigen presentation by DR-1301: DR1301 and TCR transfectants, MBP peptide, IL-2 in supernatant by ELISA
T1 construct: expressed in transfected cells; host or cells: DAP.3 murine fibroblasts (gift of C. Hurley and R. Rosen-Bronson)
Excerpt: The murine T-cell hybridoma cell line BW58α-β- (a gift of […] and W. Born) was used for transfection of human TCRα and β cDNA isolated from patients with multiple sclerosis (Hastings, 1996). The parental DAP.3 murine fibroblast cell line was used for transfection of DR(α,β1*1301) or DR((α,β*1501) as previously described (a gift of C. Hurley and R. Rosen-Bronson)) ([Hurley, 1995), [Posch, 1995), [Rosen-Bronson, 1991). All cells lines were maintained in DMEM supplemented with 10% fetal calf serum, 50 U/ml penicillin G, 50 μg/ml streptomycin, 1 mM sodium pyruvate, 2 mM glutamine, and 10 mM HEPES buffer (all Gibco/BRL, Gaithersburg, Md.). TCR- and HLA-transfectants were expanded using 1 mg/ml G418 (Gibco/BRL), or 1 mg/ml G418 and 1 mg/ml hygromycin (Calbiochem, San Diego, Calif.), respectively. Cells were washed and resuspended in DMEM complete medium without antibodies. 10^5 cells of the TCR-transfected or untransfected (control) BW58α-β- cells and an equal number of DR-transfected or untransfected (control) Dap.3 cells were incubated with MBP 152-165, or MBP 83-97 and various concentrations of compound, using an U-bottom 96 well plate (Costar). Cell culture supernatants were harvested after […] and stored at -70° C. until use. IL-2 cytokine concentrations (pg/ml) of supernatants were measured by ELISA (Genzyme, Cambridge, Mass.) according to the manufacturer's instructions. The activity of compounds identified by MCDOCK in functional assays that measure inhibition of IL-2 secretion by DR1301 and DR1501-restricted TCR transfectants using compound #105 and several other compounds was evaluated. The results obtained with compound #105 are contained in FIG. 3. In the figure t1 and t2 represent dose-response curves generated in two different experiments. TCR and DR transfectants were incubated for 36 hours with or without compound and the appropriate MBP peptide. IL-2 concentration of the supernatants was then analyzed by ELISA.

HLA-DR1301 [2] = target: T1, HLA-DR1301; experiment: Competitive peptide-binding assay with biotinylated MBP peptide; conditions: analog at 6.25 μM to 400 μM, OD at 450 nm
Protocol: 1.5×10^6 HLA-DR-transfected Dap.3 cells were washed in Hanks' Balanced Salt Solution, fixed with 1% paraformaldehyde, washed with RPMI medium and PBS, and resuspended in binding buffer. Biotinylated MBP peptide was added at 200 μg/ml (for MBP 152-165) or 1 μg/ml (for MBP 83-97). BSA was added at 1%. The blocking compound (analogue 6) was added at multiple concentrations ranging from 6.25 μM to 400 μM and incubated overnight in a shaking water bath at 37° C. The samples were then washed and lysed with 100 μl lysis buffer containing 1% nonidet-P40 on ice for 40 min. After centrifugation, the supernatant containing the cell membrane fragments was […] to a 96-well plate pre-coated with the L243 monoclonal antibody that binds to all HLA-DR molecules. The lysis buffer was neutralized with 100 μl n-octyl-β-D-glucopyranoside overnight at 4° C. The samples were then washed and incubated with streptavidin-peroxidase for 1 hour at room temperature. […] OD was measured by an ELISA reader at 450 nm. Competition of the compound for the MBP peptide was calculated according to the following formula: [formula]
This assay evaluates the binding of biotinylated MBP peptide to HLA-DR1301 in the presence of different concentrations of the analog (analog 6 of lead compound). The amounts of MBP peptide bound (label) to the HLA molecule are then quantitated based on the amount of biotin detected.

HLA-DR1501 = target: T2, HLA-DR1501 (Homo sapiens, UniProt P01903+P01911); experiment: IL-2 secretion functional blocking assay, DR1501-restricted TCR transfectants with MBP 83-97; type: cell-based; conditions: DR1501 and TCR transfectants, MBP peptide, IL-2 in supernatant by ELISA
T2 construct: expressed in transfected cells; host or cells: DAP.3 murine fibroblasts (gift of C. Hurley and R. Rosen-Bronson)
Excerpt: The murine T-cell hybridoma cell line BW58α-β- (a gift of B. Malissen and W. Born) was used for transfection of human TCRα and β cDNA isolated from patients with multiple sclerosis (Hastings, 1996). The parental DAP.3 murine fibroblast cell line was used for transfection of DR(α,β1*1301) or DR((α,β*1501) as previously described (a gift of C. Hurley and R. Rosen-Bronson)) ([Hurley, 1995), [Posch, 1995), [Rosen-Bronson, 1991). All cells lines were maintained in DMEM supplemented with 10% fetal calf serum, 50 U/ml penicillin G, 50 μg/ml streptomycin, 1 mM sodium pyruvate, 2 mM glutamine, and 10 mM HEPES buffer (all Gibco/BRL, Gaithersburg, Md.). TCR- and HLA-transfectants were expanded using 1 mg/ml G418 (Gibco/BRL), or 1 mg/ml G418 and 1 mg/ml hygromycin (Calbiochem, San Diego, Calif.), respectively.
Cells were washed and resuspended in DMEM complete medium without antibodies. […] IL-2 cytokine concentrations (pg/ml) of supernatants were measured by ELISA (Genzyme, Cambridge, Mass.) according to the manufacturer's instructions.
The activity of compounds identified by MCDOCK in functional assays that measure inhibition of IL-2 secretion by DR1301 and DR1501-restricted TCR transfectants using compound #105 and several other compounds was evaluated. […] IL-2 concentration of the supernatants was then analyzed by ELISA.

Compound	specificity for DR-1301 as compared with DR-1501, by inhibitory effect on IL-2 secretion (HLA-DR1301 [1])	specificity for DR-1301 as compared with DR-1501, by inhibitory effect on IL-2 secretion (HLA-DR1301 [1]; listed as #6)	competition with biotinylated MBP peptide for binding to DR1301 (HLA-DR1301 [2])	inhibition of IL-2 secretion / blocking of antigen presentation by DR-1301 (HLA-DR1301 [1])	inhibition of IL-2 secretion / blocking of antigen presentation by DR-1301 (HLA-DR1301 [1]; listed as lead compound #105)	reversal of inhibition of IL-2 production by increasing MBP 152-165 peptide concentration (HLA-DR1301 [1]; MBP 0 to 1200 micrograms/ml, DR1301-restricted TCR transfectants)	inhibition of IL-2 secretion / blocking of antigen presentation by DR-1501 (HLA-DR1501)
O=C(CNc1ccc(Cl)cc1Cl)NC1C=Cc2ccc(S(=O)(=O)Nc3ccc(Cl)cc3Cl)cc2C1=O (stereo not drawn) [analog #6, 2-[(2,4-dichlorophenyl)amino]-N-(7-{[(2,4-dichlorophenyl)amino]sulfonyl}-1-oxo(2-2-hydronaphthyl))acetamide]	greater degree of specificity for DR-1301 as compared with DR-1501	greater specificity for DR1301 than #105	specific binding of the compound to HLA-DR1301; also recorded: specifically competes with MBP peptide for binding to purified DR1301 molecules				
COc1ccc(NS(=O)(=O)c2ccc3ncn(NS(=O)(=O)c4ccc(I)cc4)c(=O)c3c2)cc1 [analog #14, 3-{[(4-iodophenyl)sulfonyl]amino}-6-{[(4-methoxyphenyl)amino]sulfonyl}-3-hydroquinazolin-4-one]				inactive			
CC(=O)Nc1ccc(NCC(=O)Nn2cnc3ccc(S(=O)(=O)Nc4ccc(NC(C)=O)cc4)cc3c2=O)cc1 [compound #105, 2-{[4-(acetylamino)phenyl]amino}-N-[6-({[4-(acetylamino)phenyl]amino}sulfonyl)-4-oxo(3-hydroquinazolin-3-yl)]acetamide]	most effective in discriminating			strong inhibition	significant effect	best dose-response curves	weaker inhibition
